Assays:
Format in all cases: in vivo, mouse
[1] = system: normal mice; experiment: Food intake of mice after single intraperitoneal injection
Protocol: (§1) Mice were intraperitoneally injected with DMSO or HLY72 (dissolved in DMSO) 25 μL within 2 hours before turning off the lamp. During the intragastric experiment, the high concentration of HLY72 dissolved in DMSO was dissolved in 10% cyclodextrin, and the total volume was 100 μL Volume by gavage, so that the final concentration of DMSO was less than 10%. The diet was weighed at the 3rd hour, the 6th hour, the 12th hour, and the 24th hour respectively after the lights out. The corresponding mouse body weight was also weighed at the same time before the daily administration. The fat content of mice was measured with the magnetic resonance fat content measuring instrument of the animal platform in SIBCB.
The next question we are very concerned about is whether HLY78 has similar functions to NUCB2 protein in mice. Up to now, the most classic function reported for NUCB2 protein is to reduce the food intake of mice at night. Therefore, the experiment was designed: 20 mg/kg of HLY78 was injected intraperitoneally within two hours before turning off the lights at night, and then the food intake of the mice was measured at different time points (0-3 h, 0-6 h, 0-12 h, 0-24 h). […] During the three days of the adaptive injection period before HLY78 injection, both groups of mice were injected with DMSO. On the day of injection of HLY78 and the two days before the injection of DMSO, the body weight of the two groups of mice is also the same (FIG. 2b).
Next, two small molecules HLY72 and HLY103 were selected to perform functional experiments on the food intake in mice.

[2] = system: normal-fed mice (Lean); experiment: Metabolic cage, normal-fed mice (Lean); conditions: for respiratory exchange rate / physical activity: 20 mg/kg
Protocol: Before starting the metabolic cage experiment, the mice were fed in a single cage for 1 week. After a one-week single cage adaptation period, three days before the start of the small molecule compound injection, the mice were injected with 25 μL of DMSO within 2 hours before turning off the lights every afternoon, allowing them to adapt to the injection for 3 days. After 3 days of injection, the acclimated mice were put into the metabolic cage. Starting from the same day, 25 μL of DMSO and HLY72 (20 mg/kg) were injected within 2 hours before turning off the lights for 3 consecutive days.
Next, the effect of HLY72 on the metabolism of mice is studied. We use two methods: (1) the relevant metabolic indexes of the mice are directly measured using the metabolic cage, and (2) the expression of the relevant key metabolic genes is detected. three metabolic parameters are obtained through the metabolic cage experiment: (1) Energy expenditure (EE), energy output is an important aspect of energy balance, under conditions such as restricted diet and fasting, mice will reduce basic metabolism, reduce energy expenditure; (2) respiratory exchange ratio (RER), based on the ratio calculated by CO2 produced and the use of 02, RER of 1 means that carbohydrates is mainly used as energy, RER of 0.7 means that fat is mainly used as fuel; (3) physical activity (Activity).

[3] = system: OB/OB obese model mice; experiment: Weight loss in OB/OB obese model mice
From the text: All animal experiments were approved by the Animal Management Committee of SIBCB. C57BL/6 mice were purchased from Lingchang company (normal mice and high-fat diet-induced obese mice), C57/BLJ6 (NUCB2 gene knockout mice for breeding and background purification) were purchased from Lingchang company, OB/OB mice were purchased from Slack company. A high-fat diet (45% kcal, D12451) for inducing obese mice was purchased from Research Diets. Starting from the sixth week, it was fed with high-fat diet for 14-25 weeks. The rest of the mice used normal diet (13.5% kcal). The mice were housed in the SPF grade animal house of SIBCB. The lights were turned off for 12 hours (19: 00-07: 00), and the lights were turned on for 12 hours (07: 00-19: 00).
as §1
After obtaining the above results, we now begin to use the small molecule HLY72 in obese mouse models. We first chose the obese mouse model (OB/OB) caused by Leptin mutation. An important reason for the persistence of obesity is the resistance and tolerance to regulatory factors such as Insulin and Leptin. And we are very pleased with the fact that NUCB2 can reduce the food intake of Leptin receptor mutant Zucker rats. In this regard, we can reasonably speculate that the small molecule HLY72 should also have an effect on OB/OB mice. Sure enough, the injection of HLY72 has a significant weight loss effect on OB/OB mice.

[4] = system: high-fat diet obese mice; experiment: Blood biochemical tests and liver slices of obese mice; conditions: 20 mg/kg
Protocol: Mouse liver tissues were taken and fixed in 4% paraformaldehyde at 4° C. overnight. It was washed twice with PBS buffer solution in 30% and 50% ethanol for 30 minutes each, and stored in 70% ethanol at 4° C. (1) Gradient dehydration of ethanol: 80% ethanol for 30 minutes, 95% ethanol for 30 minutes, 100% ethanol for 15 minutes, and fresh 100% ethanol for 15 minutes. (2) Xylene transparent: ½ absolute ethanol plus ½ xylene for 15 minutes, xylene for 10 minutes, and fresh xylene for 10 minutes. (3) Wax immersion, embedding, sectioning: ½ xylene plus ½ paraffin for 30 minutes, paraffin 1 for 90 minutes, paraffin 2 for 120 minutes, paraffin 3 overnight for embedding, conventional section thickness was 4 μm, pasted on clean glass slides that have been processed, the slides were baked at 37° C. overnight, collected in a slide box and sealed at 4° C. (4) Xylene dewaxing, gradient ethanol rehydration: tissue sections were dewaxed three times with xylene, 10 minutes each time, and placed in ½ xylene plus ½ absolute ethanol for 15 minutes. After 5 minutes each of 100%, 90%, 80%, 70%, 50% and 30% ethanol, it was put in pure water for 5 minutes. (5) HE staining, filming: hematoxylin staining at room temperature for 20 minutes, rinsed under running water, color separation with 0.1% hydrochloric acid and ethanol for 1 second, rinsed under running water, after 1 minute each of 30%, 50%, 70%, 80% and 95% ethanol, it was stained with 1% eosin for 1 minute. It was put in absolute ethanol for 1 minute and dehydrated with fresh absolute ethanol twice for 5 minutes each time, it was put in ½ absolute ethanol plus ½ xylene for 15 minutes, and then xylene 1, 2, 3 for 5 minutes each time. Sealed with neutral gum and stored at room temperature in a dry place. The cell platform Olympus BX51 microscope was used for filming.
The effects on the various adverse indicators of obesity after drug administration were detected.

[5] = OB/OB mice, 20 mg/kg injection, 7 consecutive days

## C=Cc1cccc2c1N(C)Cc1cc3c(cc1-2)OCO3 [HLY72]
[1]; 7.5 mg/kg
  food intake of mice: no significant effect
[1]; 15 mg/kg
  food intake of mice: significant gradient effect
[1]; 30 mg/kg
  food intake of mice: significant gradient effect
[2]; 20 mg/kg once a day, night (dark) and day (light)
  energy expenditure: significantly reduces
[2]; at night
  respiratory exchange rate: significantly reduced
[2]; daytime
  physical activity: does not affect
[2]; during the day
  respiratory exchange rate: no change
[2]; night
  physical activity: decreased
[3]; OB/OB mice injected with HLY72
  urine of mice: significantly reduced
[3]; OB/OB mice, 20 mg/kg injection
  daily food intake compared with the DMSO group: significantly reduced
[3]; [5]
  body weight after treatment: 37.73 ± 0.87 g
  reduction in total body weight: 10.15%±0.87%
[3]; OB/OB mice, 20 mg/kg injection, start
  body weight before treatment: 42.02 ± 1.01 g
[4]
  alanine transaminase ALT: decreased
  aspertate aminotransferase AST: does not change
  blood glucose: decreased significantly
  cholesterol levels: decreased significantly
  triacylglycerol: decreased significantly
[4]; HE staining
  fatty liver caused by high fat (liver slices): well treated

Reference: patent US20200385396A1, “Compond for treatment or prevention of obesity or diseases related to obesity, and application thereof” (SHANGHAI INSTITUTES FOR BIOLOGICAL SCIENCES, CHINESE …, priority 2017, published 2020)
